Results published in ChEMBL document CHEMBL2331460, “Glycosidic carbonic anhydrase IX inhibitors: a sweet approach against cancer” (Bioorg Med Chem, 2013).

What was measured:
Carbonic anhydrase 9 = Carbonic anhydrase 9 (Homo sapiens, UniProt Q16790); experiment: Inhibition of human carbonic anhydrase 9 preincubated for 15 mins by CO2 hydration stopped-flow assay
Homo sapiens [1] = organism: Homo sapiens; experiment: Selectivity ratio of Ki for human carbonic anhydrase 1 to Ki for human carbonic anhydrase 9
Homo sapiens [2] = organism: Homo sapiens; experiment: Selectivity ratio of Ki for human carbonic anhydrase 2 to Ki for human carbonic anhydrase 9
Carbonic anhydrase 2 = Carbonic anhydrase 2 (Homo sapiens, UniProt P00918); experiment: Inhibition of human carbonic anhydrase 2 preincubated for 15 mins by CO2 hydration stopped-flow assay

Compound	Ki (Carbonic anhydrase 9) [nM]	Ratio Ki (Homo sapiens [1])	Ratio Ki (Homo sapiens [2])	Ki (Carbonic anhydrase 2) [nM]
CC(=O)OC[C@H]1O[C@@H](NS(N)(=O)=O)[C@H](OC(C)=O)[C@@H](OC(C)=O)[C@@H]1OC(C)=O	5	480	< 17	
NS(=O)(=O)OC[C@H]1O[C@H](OC[C@H]2[C@H](O)[C@@H](O)[C@H](O)O[C@@H]2CO)[C@H](O)[C@@H](O)[C@@H]1O				11.3
CC(=O)OC[C@H]1O[C@@H](NS(N)(=O)=O)[C@@H](OC(C)=O)[C@@H](OC(C)=O)[C@@H]1OC(C)=O		480	< 17	
C[C@@H]1O[C@@H](NS(N)(=O)=O)[C@@H](O)[C@H](O)[C@H]1O	900		7	
CC(=O)OC[C@H]1O[C@@H](NS(N)(=O)=O)[C@H](OC(C)=O)[C@@H](OC(C)=O)[C@H]1OC(C)=O	5	480	< 17	
CC(=O)OC[C@H]1O[C@H](NS(N)(=O)=O)C=C[C@@H]1OC(C)=O	9			
